Publication PMC12845078 (Pharmaceuticals, 2025)
Marks after values point to notes of the source that are not given here.

Assays:
[1] = Liver microsome protein binding, rat; format: in vitro ADME; details: liver microsomes, pH 7.4
PEPT1 = target: T1, PEPT1 (Homo sapiens, UniProt P46059); experiment: Uptake and uptake inhibition in MDCK/hPEPT1 cell model; format: cell-based; details: 4 °C and 37 °C
T1 construct: host or cells: MDCK
T1 sequence (P46059 1-708): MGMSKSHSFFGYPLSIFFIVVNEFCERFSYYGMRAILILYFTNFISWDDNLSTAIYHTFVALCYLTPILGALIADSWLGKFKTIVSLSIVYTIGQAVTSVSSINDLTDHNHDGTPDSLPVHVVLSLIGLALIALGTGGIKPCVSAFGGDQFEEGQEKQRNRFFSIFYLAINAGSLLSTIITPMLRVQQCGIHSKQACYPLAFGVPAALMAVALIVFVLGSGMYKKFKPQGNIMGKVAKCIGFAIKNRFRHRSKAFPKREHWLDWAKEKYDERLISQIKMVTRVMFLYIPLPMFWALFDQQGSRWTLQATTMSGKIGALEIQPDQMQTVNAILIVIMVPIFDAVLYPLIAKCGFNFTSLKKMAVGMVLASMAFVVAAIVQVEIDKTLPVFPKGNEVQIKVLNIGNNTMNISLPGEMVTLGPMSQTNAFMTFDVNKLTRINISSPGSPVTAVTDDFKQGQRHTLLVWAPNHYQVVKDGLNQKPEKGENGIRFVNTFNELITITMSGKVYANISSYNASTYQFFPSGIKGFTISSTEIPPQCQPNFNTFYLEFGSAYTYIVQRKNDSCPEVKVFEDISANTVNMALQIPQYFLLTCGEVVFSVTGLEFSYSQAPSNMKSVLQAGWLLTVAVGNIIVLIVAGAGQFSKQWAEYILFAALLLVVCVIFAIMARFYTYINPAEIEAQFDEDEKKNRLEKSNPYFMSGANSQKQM
Method: MDCK-PEPT1 cells were seeded into 24-well plates at a density of approximately 5 × 10^5 cells per well. When the cell confluency reached 60–70%, the culture medium was aspirated, and the cells were rinsed twice with HBSS pre-warmed to 37 °C. […] After incubation at 37 °C for 10 min, the buffer was aspirated, and ice-cold HBSS was immediately added to terminate the reaction, followed by rinsing three times. After drying the residual liquid, 200 μL of pure water were added to each well, and the cells were lysed by repeated freezing–thawing in liquid nitrogen three times. The cell lysates were collected, and the protein content was determined by the BCA method.
Cell uptake assessment: The concentration of the analyte in cells was corrected using the protein concentration of the cell lysate in each well.(4) Conclysate=Concdrug/ConcProtein
The uptake rate (U, pmol/mg/min) of the compound was calculated following Formula (5).(5) U=Clysate/P×t where Clysate is the amount of drug in the cell lysate (ng); P is cellular protein content (mg); t is incubation time (min).
The uptake ratio of the compound was calculated following Formula (6)(6) UR=U/ UMOCK where UMOCK is the uptake rate in MOCK-MDCK cells (pmol/mg/min).
The inhibition ratio was calculated following Formula (7)(7) IR=(1−Uwith inhibitor−Umock with inhibitor/Uwithout inhibitor−Umock without inhibitor)×100%

[2] = Plasma protein binding (rapid equilibrium dialysis), human; format: in vitro ADME; details: pH 7.4, read-out: Plasma Protein Binding (converted)
Method: (§3) After incubation for 20 min, a portion of the whole blood was centrifuged at 2500× g for 10 min at 4 °C to separate plasma; another portion of the whole blood was subjected to three cycles of freeze–thawing and ultrasonicated for 10 min to disrupt cells. Equal volumes of plasma and whole blood samples were added to the whole blood and plasma specimens, respectively, followed by protein precipitation with acetonitrile containing an internal standard (IS). […] The RED inserts were placed in the matching incubation plate: 200 µL of drug-containing matrix were added to the sample chamber, and 400 µL of PBS buffer (pH: 7.4) were added to the buffer chamber. After incubation in a constant-temperature shaking incubator for 6 h (37 °C), samples from the sample chamber and buffer chamber were diluted 1:1 with PBS or matrix, respectively, and proteins were precipitated with acetonitrile containing IS.

[3] = Pharmacokinetics of MT, 6-HMT and CBD in SD rats (i.v. and oral); details: for MRT last: MRT(0–t)
Method: The drugs were dissolved in the same manner as described previously, with an administration volume of 5 mL/kg for all groups. Blood samples were collected at the time points of pre-administration and 0.033 (only for the intravenous administration group), 0.083, 0.25, 0.5, 0.75, 1, 1.5, 2, 4, 6, 8, and 12 h post-administration.
(§1) The column temperature was set at 40 °C.

[4] = tested on: CYP1A2-mediated metabolism of MT; experiment: Static DDI model prediction of CBD's impact on MT exposure, beagle; design: species or system beagle dog; details: input of static DDI model
From the text: (§2) (AUC when co-administered with the inhibitor) to AUC[contr] (AUC without the inhibitor).

[5] = Brain tissue protein binding, rat; format: in vitro ADME; details: pH 7.4
Method: as §3

[6] = Pharmacokinetics of MT and CBD in rats after pre-administration of ABT
Method: Twelve SD rats were randomly divided into two groups. Both groups were first given an intragastric administration of 1-aminobenzotriazole (ABT) at a dose of 200 mg/kg. […] The administration volume for all groups was 5 mL/kg. […] Approximately 50 μL of venous blood were collected into heparin sodium anticoagulant tubes and placed on ice. The sample processing and storage methods were the same as described previously.
Subsequently, the resultant mixture was vortexed for 1 minute and centrifuged at 4 °C for 10 min at 18,800× g. […] The lowest limit of quantification (LLOQ) was established at 2 ng/mL.
Kromasil 100-5-C8 (2.1 × 50 mm) was selected for the separation of samples. The mobile phase consisted of solvent A (water with 0.1% formic acid and 5 mM ammonium acetate) and solvent B (methanol with 0.1% formic acid). […] The column temperature was set at 40 °C. The two eluents were 0.1% formic acid and 5 mM ammonium acetate in water (A) and 0.1% formic acid in methanol (B). […] The main mass spectrometry detection parameters were: dry gas 10 L/min, heated gas 10 L/min, collision gas 270 kPa, ion source temperature 300 °C, desolvation temperature 250 °C, and heating module temperature 400 °C.
Pharmacokinetic parameters: GraphPad Prism 10.1 software was utilized to draw the curves. Noncompartmental analysis was selected to calculate the major PK parameters, including clearance (CL), volume (V), half-life (t1/2), peak concentration (Cmax), and area under the curve (AUC), using WinNonlin 8.1.

[7] = Plasma protein binding (rapid equilibrium dialysis), mouse; format: in vitro ADME; details: pH 7.4
Method: as §3

[8] = Pharmacokinetics of MT, 6-HMT and CBD in beagles after oral administration; details: male, beagle, dog, in vivo, po, 3 mg/kg, p.o.; for AUC(0-t) / AUC(0-inf) / Cmax / MRT last / Tmax: beagles; for MRT last: MRT(0–t); for half-life: t1/2, beagles
Method: Twelve male healthy adult beagles (weighing 10 ± 2 kg) were randomly divided into two groups. […] The drugs were dissolved in a physiological saline solution containing 5% castor oil, with an administration volume of 2 mL/kg. Blood samples were collected at the time points of pre-administration and 0.083, 0.25, 0.5, 0.75, 1, 1.5, 2, 4, 6, 8, and 12 h post-administration.
as §1

[9] = Liver microsome protein binding, human; format: in vitro ADME; details: liver microsomes, pH 7.4
Method: as §3

[10] = Liver microsome protein binding, dog; format: in vitro ADME; details: beagle, liver microsomes, pH 7.4
Method: as §3

[11] = Plasma protein binding (rapid equilibrium dialysis), rat; format: in vitro ADME; details: plasma, pH 7.4
Method: as §3

[12] = Plasma protein binding (rapid equilibrium dialysis), dog; details: beagle, dog, plasma, pH 7.4
Method: as §3

[13] = tested on: CYP1A2-mediated metabolism of MT; experiment: Static DDI model prediction of CBD's impact on MT exposure, rat; details: input of static DDI model
From the text: as §2

[14] = male, Sprague-Dawley, rat, in vivo, po, 5 mg/kg, rats, p.o., MT + CBD (5 + 5) mg/kg
[15] = male, Sprague-Dawley, rat, in vivo, po, 5 mg/kg, rats, p.o., MT + CBD (5 + 20) mg/kg
[16] = male, Sprague-Dawley, rat, in vivo, po, 5 mg/kg, rats, p.o., MT + Vehicle 5 mg/kg
[17] = Sprague-Dawley, rat, in vivo, po, 5 mg/kg

**Q.** Which fraction unbound at 6 h [1] does the source give for COc1ccc2[nH]cc(CCNC(C)=O)c2c1 [MT, Melatonin] here?
**A.** 0.972

**Q.** What about the “uptake rate of MT, MOCK cells vs transfected cells” value (PEPT1) of the same compound?
**A.** no difference

**Q.** And the fraction unbound at 6 h [2]?
**A.** 0.388

**Q.** What about the AUC(0-t) ([3]; male, Sprague-Dawley, rat, in vivo, iv, 1 mg/kg, AUC(0–t), rats, i.v., MT + CBD (1 + 1) mg/kg) of the same compound?
**A.** 260 ng·h/mL

**Q.** What about the MRT last ([3]; male, Sprague-Dawley, rat, in vivo, iv, 1 mg/kg, rats, i.v., MT + CBD (1 + 1) mg/kg) of the same compound?
**A.** 10.2 min

**Q.** What about the bioavailability ([3]; male, Sprague-Dawley, rat, in vivo, po, 5 mg/kg) of the same compound?
**A.** 20.5%

**Q.** What about the AUC(0-t) ([3]; male, Sprague-Dawley, rat, in vivo, po, 5 mg/kg, AUC(0–1h), rats, p.o., MT + CBD (5 + 5) mg/kg) of the same compound?
**A.** 114 ng·h/mL

**Q.** And the AUC(0-t) ([3]; male, Sprague-Dawley, rat, in vivo, po, 5 mg/kg, AUC(0–1h), rats, p.o., MT + CBD (5 + 20) mg/kg)?
**A.** 65.2 ng·h/mL

**Q.** What about the AUC(0-t) ([3]; male, Sprague-Dawley, rat, in vivo, po, 5 mg/kg, AUC(0–1h), rats, p.o., MT + Vehicle 5 mg/kg) of the same compound?
**A.** 241 ng·h/mL

**Q.** What about the AUC(0-t) ([3]; male, Sprague-Dawley, rat, in vivo, po, 5 mg/kg, AUC(0–t), rats, p.o., MT + CBD (5 + 5) mg/kg) of the same compound?
**A.** 138 ng·h/mL

**Q.** What about the AUC(0-t) ([3]; male, Sprague-Dawley, rat, in vivo, po, 5 mg/kg, AUC(0–t), rats, p.o., MT + CBD (5 + 20) mg/kg) of the same compound?
**A.** 121 ng·h/mL

**Q.** What about the AUC(0-t) ([3]; male, Sprague-Dawley, rat, in vivo, po, 5 mg/kg, AUC(0–t), rats, p.o., MT + Vehicle 5 mg/kg) of the same compound?
**A.** 267 ng·h/mL

**Q.** And the Cmax [3, 14]?
**A.** 212 ng/mL

**Q.** What about the Cmax [3, 15] of the same compound?
**A.** 99 ng/mL

**Q.** What about the Cmax [3, 16] of the same compound?
**A.** 588 ng/mL

**Q.** And the MRT last [3, 14]?
**A.** 39 min

**Q.** What about the MRT last [3, 15] of the same compound?
**A.** 79.8 min

**Q.** What about the MRT last [3, 16] of the same compound?
**A.** 40.2 min

**Q.** What about the Tmax [3, 14] of the same compound?
**A.** 19.8 min

**Q.** And the Tmax [3, 15]?
**A.** 8.4 min

**Q.** What about the Tmax [3, 16] of the same compound?
**A.** 10.2 min

**Q.** What about the “effect of co-administered MT on pharmacokinetic parameters of CBD” value ([3]; rats, p.o., CBD 20 mg/kg with MT 0, 5 or 20 mg/kg) of the same compound?
**A.** does not produce obvious pharmacokinetic-based interactions with CBD

**Q.** What about the t1/2 ([3]; rats, p.o., MT + CBD (5 + 5) mg/kg) of the same compound?
**A.** 0.66 (0.14) h

**Q.** And the t1/2 ([3]; rats, p.o., MT + CBD (5 + 20) mg/kg)?
**A.** 1.80 (0.94) * h

**Q.** What about the “MT total exposure with CBD, as percent of MT alone” value ([3]; rats, p.o., high CBD dose) of the same compound?
**A.** 45%

**Q.** And the “fm(CYP1A2), proportion of MT metabolized by CYP1A2” value [4]?
**A.** 0.92

**Q.** And the fraction unbound at 6 h [5]?
**A.** 0.315

**Q.** And the “AUC of MT reduced by co-administration of CBD” value ([6]; ABT-treated rats)?
**A.** 2.29 fold

**Q.** What about the “Cmax of MT reduced by co-administration of CBD” value ([6]; ABT-treated rats) of the same compound?
**A.** 2.3 fold

**Q.** And the AUC(0-t) [6, 17]?
**A.** 8840 ng·h/mL

**Q.** And the Cmax [6, 17]?
**A.** 2100 ng/mL

**Q.** What about the Tmax [6, 17] of the same compound?
**A.** 30 min

**Q.** What about the half-life [6, 17] of the same compound?
**A.** 78.6 min

**Q.** And the fraction unbound at 6 h [7]?
**A.** 0.451

**Q.** What about the AUC(0-t) ([8]; MT + CBD (3 + 3) mg/kg) of the same compound?
**A.** 2540 ng·h/mL

**Q.** What about the AUC(0-t) ([8]; MT + Vehicle 3 mg/kg) of the same compound?
**A.** 602 ng·h/mL

**Q.** What about the AUC(0-inf) ([8]; MT + CBD (3 + 3) mg/kg) of the same compound?
**A.** 2550 ng·h/mL

**Q.** What about the AUC(0-inf) ([8]; MT + Vehicle 3 mg/kg) of the same compound?
**A.** 612 ng·h/mL

**Q.** What about the Cmax ([8]; MT + CBD (3 + 3) mg/kg) of the same compound?
**A.** 1360 ng/mL

**Q.** What about the Cmax ([8]; MT + Vehicle 3 mg/kg) of the same compound?
**A.** 1080 ng/mL

**Q.** And the MRT last ([8]; MT + CBD (3 + 3) mg/kg)?
**A.** 99.6 min

**Q.** And the MRT last ([8]; MT + Vehicle 3 mg/kg)?
**A.** 30 min

**Q.** And the Tmax ([8]; MT + CBD (3 + 3) mg/kg)?
**A.** 42.6 min

**Q.** What about the Tmax ([8]; MT + Vehicle 3 mg/kg) of the same compound?
**A.** 13.2 min

**Q.** And the half-life ([8]; MT + CBD (3 + 3) mg/kg)?
**A.** 55.2 min

**Q.** What about the half-life ([8]; MT + Vehicle 3 mg/kg) of the same compound?
**A.** 19.8 min

**Q.** And the fraction unbound at 6 h [9]?
**A.** 0.979

**Q.** What about the fraction unbound at 6 h [10] of the same compound?
**A.** 0.78

**Q.** What about the fraction unbound at 6 h [11] of the same compound?
**A.** 0.425

**Q.** And the fraction unbound at 6 h [12]?
**A.** 0.364

**Q.** What about the “fm(CYP1A2), proportion of MT metabolized by CYP1A2” value [13] of the same compound?
**A.** 0.92
